Test results taken from ChEMBL document CHEMBL3769314, “4(5)-Aryl-2-C-glucopyranosyl-imidazoles as New Nanomolar Glucose Analogue Inhibitors of Glycogen Phosphorylase” (ACS Med Chem Lett, 2015).
The source made the active and inactive calls. No cut-off for these calls is given here.

Assays:
[1] = biological target: T1, Glycogen phosphorylase, muscle form (Oryctolagus cuniculus, UniProt P00489); experiment: Competitive inhibition of rabbit muscle glycogen phosphorylase-b using alpha-D-glucose-1-phosphate as substrate by Dixon plot analysis
T1 sequence (P00489 whole entry): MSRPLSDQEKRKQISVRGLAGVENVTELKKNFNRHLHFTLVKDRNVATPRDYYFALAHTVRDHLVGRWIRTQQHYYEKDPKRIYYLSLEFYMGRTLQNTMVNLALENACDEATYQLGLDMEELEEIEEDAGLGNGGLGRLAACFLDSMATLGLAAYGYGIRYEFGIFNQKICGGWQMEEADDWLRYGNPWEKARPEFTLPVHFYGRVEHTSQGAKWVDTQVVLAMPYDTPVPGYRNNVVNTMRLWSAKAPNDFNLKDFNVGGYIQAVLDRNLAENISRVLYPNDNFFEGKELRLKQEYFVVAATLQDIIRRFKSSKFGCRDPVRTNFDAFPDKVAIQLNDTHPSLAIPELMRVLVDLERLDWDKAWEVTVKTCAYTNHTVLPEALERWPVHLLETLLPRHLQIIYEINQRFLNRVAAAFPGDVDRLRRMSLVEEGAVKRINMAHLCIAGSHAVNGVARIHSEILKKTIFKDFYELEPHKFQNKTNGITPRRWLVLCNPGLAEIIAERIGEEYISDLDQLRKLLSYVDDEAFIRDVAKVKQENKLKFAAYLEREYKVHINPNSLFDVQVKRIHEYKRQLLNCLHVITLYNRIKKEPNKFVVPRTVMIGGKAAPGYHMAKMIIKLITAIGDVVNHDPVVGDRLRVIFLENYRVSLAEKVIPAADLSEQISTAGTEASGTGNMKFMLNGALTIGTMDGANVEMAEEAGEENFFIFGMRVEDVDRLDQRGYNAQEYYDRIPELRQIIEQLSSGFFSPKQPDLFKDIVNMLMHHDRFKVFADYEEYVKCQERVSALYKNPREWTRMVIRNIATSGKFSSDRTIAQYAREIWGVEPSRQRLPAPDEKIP

[2] = biological target: T2, Glycogen phosphorylase, muscle form (Oryctolagus cuniculus) (UniProt P00489); experiment: Inhibition of rabbit muscle glycogen phosphorylase-b using alpha-D-glucose-1-phosphate as substrate at 625 uM by Dixon plot analysis
T2 sequence (whole entry): T1 sequence (P00489 whole entry)

[3] = biological target: T1, Glycogen phosphorylase, muscle form

SMILES	Ki [1] [µM]	also measured
OC[C@H]1O[C@@H](c2nc(-c3ccc4ccccc4c3)c[nH]2)[C@H](O)[C@@H](O)[C@@H]1O	0.031	–
OC[C@H]1O[C@@H](c2cc(-c3ccccc3)on2)[C@H](O)[C@@H](O)[C@@H]1O	–	inhibition [2]: inactive
OC[C@H]1O[C@@H](c2nc(-c3ccc4ccccc4c3)cs2)[C@H](O)[C@@H](O)[C@@H]1O	158	–
OC[C@H]1O[C@@H](c2nc3ccccc3s2)[C@H](O)[C@@H](O)[C@@H]1O	–	Ki [3]: 229 µM
OC[C@H]1O[C@@H](c2nc(-c3ccccc3)cs2)[C@H](O)[C@@H](O)[C@@H]1O	310	–
OC[C@H]1O[C@@H](c2nc(-c3ccccc3)c[nH]2)[C@H](O)[C@@H](O)[C@@H]1O	0.28	–
OC[C@H]1O[C@@H](c2cc(-c3ccccc3)n[nH]2)[C@H](O)[C@@H](O)[C@@H]1O	–	Ki [3]: 400 µM
